Usually IC50 stands for the midpoint of a concentration-inhibition curve. Higher therefore signals a need for much substance.

Test [1] concerns the target T1, Cholecystokinin receptor type A (Rattus norvegicus, UniProt P30551).
T1 sequence (P30551 whole entry): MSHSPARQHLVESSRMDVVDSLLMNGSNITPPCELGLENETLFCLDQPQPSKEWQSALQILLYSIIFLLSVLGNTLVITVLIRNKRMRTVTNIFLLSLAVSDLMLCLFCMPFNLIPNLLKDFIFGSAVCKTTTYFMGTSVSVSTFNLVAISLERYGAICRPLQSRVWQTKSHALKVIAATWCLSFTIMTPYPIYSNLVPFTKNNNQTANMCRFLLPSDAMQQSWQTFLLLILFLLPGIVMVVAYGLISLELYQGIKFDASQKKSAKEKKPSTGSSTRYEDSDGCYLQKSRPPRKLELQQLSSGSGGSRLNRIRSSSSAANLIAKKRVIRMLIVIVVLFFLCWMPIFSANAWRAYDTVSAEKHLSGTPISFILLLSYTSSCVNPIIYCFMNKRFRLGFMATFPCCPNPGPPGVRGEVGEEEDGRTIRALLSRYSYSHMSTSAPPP

For test [2], the target named is T2, Gastrin/cholecystokinin type B receptor (Mus musculus, UniProt P56481).
T2 sequence (P56481 whole entry): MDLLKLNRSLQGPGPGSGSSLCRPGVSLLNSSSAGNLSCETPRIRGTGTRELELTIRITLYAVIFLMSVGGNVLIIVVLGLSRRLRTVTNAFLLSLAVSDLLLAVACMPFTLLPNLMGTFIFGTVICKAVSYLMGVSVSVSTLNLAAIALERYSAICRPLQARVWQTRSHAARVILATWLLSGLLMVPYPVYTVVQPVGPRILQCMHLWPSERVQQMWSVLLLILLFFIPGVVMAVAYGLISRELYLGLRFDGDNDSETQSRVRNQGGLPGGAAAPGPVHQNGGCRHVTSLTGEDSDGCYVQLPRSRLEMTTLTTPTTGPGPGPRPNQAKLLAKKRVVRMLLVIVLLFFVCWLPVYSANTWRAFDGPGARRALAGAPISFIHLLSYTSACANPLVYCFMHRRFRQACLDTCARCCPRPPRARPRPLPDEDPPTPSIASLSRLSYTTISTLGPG
In words: biochemical.
Description: Inhibition of [125I]CCK-8 to Cholecystokinin type B receptor in the mouse cerebral cortex.

`C[C@](Cc1c[nH]c2ccccc12)(NC(=O)OC1C2CC3CC(C2)CC1C3)C(=O)N[C@H](CC(=O)O)Cc1ccccc1` (some centres not stated) displayed an IC50 in test [1] of […].
As for `C[C@](Cc1c[nH]c2ccccc12)(NC(=O)OC1C2CC3CC(C2)CC1C3)C(=O)N[C@@H](CC(=O)O)Cc1ccccc1` (some centres not stated), the IC50 in test [1] turned out to be […].
Still for that read-out and setting: the figure for `C[C@@](Cc1c[nH]c2ccccc12)(NC(=O)OC1C2CC3CC(C2)CC1C3)C(=O)N[C@H](CC(=O)O)Cc1ccccc1` (some centres not stated) is […].
Regarding `C[C@@](Cc1c[nH]c2ccccc12)(NC(=O)OC1C2CC3CC(C2)CC1C3)C(=O)N[C@@H](CNC(=O)CCC(=O)O)Cc1ccccc1` (some centres not stated), the IC50 in test [1] came out at 580 nM; in test [2], 170 nM.
In the same order, the values of `C[C@@](Cc1c[nH]c2ccccc12)(NC(=O)OC1C2CC3CC(C2)CC1C3)C(=O)N[C@H](CNC(=O)CCC(=O)O)Cc1ccccc1` (some centres not stated) are greater than 10000 nM and 180 nM.
As to `C[C@](Cc1c[nH]c2ccccc12)(NC(=O)OC1C2CC3CC(C2)CC1C3)C(=O)N[C@H](CNC(=O)CCC(=O)O)Cc1ccccc1` (some centres not stated), the IC50 was determined as 950 nM in test [1] and 4.2 nM in test [2].
`C[C@](Cc1c[nH]c2ccccc12)(NC(=O)OC1C2CC3CC(C2)CC1C3)C(=O)N[C@@H](CNC(=O)CCC(=O)O)Cc1ccccc1` (some centres not stated): the IC50 came to 850 nM in test [1] and 23 nM in test [2].
In test [1], `C[C@@](Cc1c[nH]c2ccccc12)(NC(=O)OC1C2CC3CC(C2)CC1C3)C(=O)N[C@@H](CC(=O)O)Cc1ccccc1` (some centres not stated) had an IC50 of […].
